Results: article PMC6587462 (Journal of Clinical Pharmacology, 2018)
Several values for one entry are separate records, joined by “and”; a condition that tells them apart may be missing. Equal entries are not always repeated. Entries after “also recorded” stand apart in the source; their conditions may differ. Where two headings read alike, the source gives them in different places.

Tests used:
[1] = Study 4 pilot bioequivalence study, PK after single oral NEPA; format: in vivo; details: human, plasma
[2] = Study 5 bioequivalence study, PK after single oral NEPA; format: in vivo, human
[3] = Study 9 replicate crossover bioequivalence study; format: in vivo, human
[4] = Study 10 comparative bioavailability study; format: in vivo, human
[5] = Study 11 population PK/pharmacodynamic study in cancer patients; format: in vivo, human; details: population PK modeling in patients
[6] = Study 12 PK/safety and DDI study in cancer patients; format: in vivo; details: human, plasma, oral
[7] = Oral NEPA PK in cancer patients, summary across studies; format: in vivo; details: human, plasma
[8] = Study 2 ADME study of [14C]-netupitant; format: in vivo, human; details: estimated at day 29 after administration
[9] = Apical-to-basolateral permeability in Caco-2 monolayer; format: in vitro ADME; details: human
[10] = Biopharmaceutics Classification System class and solubility in water; format: physicochemical
[11] = Octanol-water partition coefficient; format: physicochemical
[12] = biological target: T1, P‐glycoprotein (P‐gp) efflux transporter (Homo sapiens, UniProt P08183); test: In vitro interaction with P-gp; format: in vitro ADME
T1 sequence (P08183 whole entry): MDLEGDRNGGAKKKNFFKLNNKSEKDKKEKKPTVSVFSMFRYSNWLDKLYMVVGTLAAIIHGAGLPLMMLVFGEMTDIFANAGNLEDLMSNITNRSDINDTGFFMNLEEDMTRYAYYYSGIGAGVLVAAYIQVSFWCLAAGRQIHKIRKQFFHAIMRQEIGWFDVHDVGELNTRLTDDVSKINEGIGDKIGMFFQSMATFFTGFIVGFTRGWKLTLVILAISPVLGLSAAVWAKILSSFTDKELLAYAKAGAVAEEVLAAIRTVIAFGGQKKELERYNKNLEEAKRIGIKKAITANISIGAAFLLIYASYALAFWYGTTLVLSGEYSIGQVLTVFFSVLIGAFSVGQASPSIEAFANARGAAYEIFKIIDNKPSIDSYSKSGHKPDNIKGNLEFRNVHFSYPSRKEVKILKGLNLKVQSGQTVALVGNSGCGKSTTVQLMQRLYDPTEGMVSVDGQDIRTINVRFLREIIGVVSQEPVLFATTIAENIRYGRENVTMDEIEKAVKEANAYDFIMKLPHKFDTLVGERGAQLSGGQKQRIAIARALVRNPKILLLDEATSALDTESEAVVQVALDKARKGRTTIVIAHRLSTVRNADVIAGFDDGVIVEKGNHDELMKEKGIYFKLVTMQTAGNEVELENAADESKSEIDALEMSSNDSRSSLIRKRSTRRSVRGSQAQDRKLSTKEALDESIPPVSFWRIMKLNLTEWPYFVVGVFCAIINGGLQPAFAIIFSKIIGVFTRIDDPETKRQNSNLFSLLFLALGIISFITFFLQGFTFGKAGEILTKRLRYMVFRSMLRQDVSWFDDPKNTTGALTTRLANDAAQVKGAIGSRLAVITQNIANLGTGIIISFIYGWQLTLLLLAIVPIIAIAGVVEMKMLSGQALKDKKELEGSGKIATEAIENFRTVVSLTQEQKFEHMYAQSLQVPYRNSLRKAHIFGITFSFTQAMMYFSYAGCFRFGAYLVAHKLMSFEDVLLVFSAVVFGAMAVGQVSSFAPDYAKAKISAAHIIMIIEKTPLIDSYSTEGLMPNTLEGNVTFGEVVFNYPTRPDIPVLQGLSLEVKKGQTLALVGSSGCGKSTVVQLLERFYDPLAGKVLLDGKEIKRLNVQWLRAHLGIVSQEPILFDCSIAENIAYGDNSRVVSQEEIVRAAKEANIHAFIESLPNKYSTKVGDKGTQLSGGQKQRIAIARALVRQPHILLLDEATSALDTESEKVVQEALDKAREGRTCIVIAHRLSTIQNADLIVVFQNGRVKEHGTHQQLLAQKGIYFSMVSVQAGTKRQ

[13] = Binding to plasma proteins; format: in vitro ADME; details: human, plasma
[14] = system: plasma proteins; test: Binding to plasma proteins; format: in vitro ADME
[15] = Absolute / oral bioavailability; format: in vivo; details: human, plasma, oral
[16] = biological target: CYP2D6 (Homo sapiens, UniProt P10635); test: In vitro CYP2D6 inhibition; format: in vitro ADME
Chain of CYP2D6 (P10635 whole entry): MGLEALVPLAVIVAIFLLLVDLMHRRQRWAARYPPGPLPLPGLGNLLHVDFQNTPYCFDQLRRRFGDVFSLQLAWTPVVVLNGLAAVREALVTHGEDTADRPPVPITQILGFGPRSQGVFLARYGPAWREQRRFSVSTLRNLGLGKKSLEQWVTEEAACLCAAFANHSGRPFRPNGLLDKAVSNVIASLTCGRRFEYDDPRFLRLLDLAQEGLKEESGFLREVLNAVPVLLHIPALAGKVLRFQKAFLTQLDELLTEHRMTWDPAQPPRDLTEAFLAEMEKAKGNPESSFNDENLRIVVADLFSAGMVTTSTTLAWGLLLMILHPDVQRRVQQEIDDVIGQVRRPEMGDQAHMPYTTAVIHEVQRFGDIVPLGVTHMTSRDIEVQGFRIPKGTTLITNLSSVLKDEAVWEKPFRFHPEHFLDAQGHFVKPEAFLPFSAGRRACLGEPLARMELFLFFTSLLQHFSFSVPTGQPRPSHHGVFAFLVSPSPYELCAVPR

[17] = parameters: species or system human; details: estimated from t1/2
[18] = cited from earlier work
[19] = cited from earlier work; for CL/F / Cmax / Tmax / Vz/F / t1/2: Study 8, healthy volunteers (22), NEPA FDC, mean (CV%)
[20] = Study 11 population PK, patients (117), NEPA FDC, cited from earlier work
[21] = absorption, binding, metabolic, or excretory level; cited from earlier work
[22] = cited from earlier work; remark: listed apart in the source
[23] = netupitant; cited from earlier work
[24] = biological target: T1, P‐glycoprotein (P‐gp) efflux transporter; details: in vitro, cited from earlier work
[25] = biological target: CYP3A4 (Homo sapiens, UniProt P08684); details: in vitro; cited from earlier work
Chain of CYP3A4 (P08684 whole entry): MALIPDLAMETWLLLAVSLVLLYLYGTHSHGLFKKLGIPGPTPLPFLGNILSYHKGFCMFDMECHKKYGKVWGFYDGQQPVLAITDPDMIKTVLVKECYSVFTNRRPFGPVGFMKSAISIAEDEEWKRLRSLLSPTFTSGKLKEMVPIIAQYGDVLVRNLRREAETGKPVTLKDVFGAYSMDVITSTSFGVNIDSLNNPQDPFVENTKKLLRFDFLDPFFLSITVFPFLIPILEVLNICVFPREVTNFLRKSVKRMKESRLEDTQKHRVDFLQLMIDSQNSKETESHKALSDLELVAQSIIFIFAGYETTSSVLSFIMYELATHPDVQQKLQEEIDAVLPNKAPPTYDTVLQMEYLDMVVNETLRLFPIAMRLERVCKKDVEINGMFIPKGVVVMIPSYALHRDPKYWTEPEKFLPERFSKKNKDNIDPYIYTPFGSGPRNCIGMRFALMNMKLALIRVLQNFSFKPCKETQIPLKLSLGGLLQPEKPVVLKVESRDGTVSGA

[26] = system: NK1 receptor; details: PET; at 6 hours after single 300-mg oral netupitant; cited from earlier work
[27] = system: NG108‐15 cells; details: netupitant and palonosetron combined; cited from earlier work
[28] = biological target: NK1 receptor (Homo sapiens, UniProt P25103); details: NG108-15 cells; netupitant and palonosetron combined; cited from earlier work
Chain of NK1 receptor (Homo sapiens, UniProt P25103) (P25103 whole entry, species assumed): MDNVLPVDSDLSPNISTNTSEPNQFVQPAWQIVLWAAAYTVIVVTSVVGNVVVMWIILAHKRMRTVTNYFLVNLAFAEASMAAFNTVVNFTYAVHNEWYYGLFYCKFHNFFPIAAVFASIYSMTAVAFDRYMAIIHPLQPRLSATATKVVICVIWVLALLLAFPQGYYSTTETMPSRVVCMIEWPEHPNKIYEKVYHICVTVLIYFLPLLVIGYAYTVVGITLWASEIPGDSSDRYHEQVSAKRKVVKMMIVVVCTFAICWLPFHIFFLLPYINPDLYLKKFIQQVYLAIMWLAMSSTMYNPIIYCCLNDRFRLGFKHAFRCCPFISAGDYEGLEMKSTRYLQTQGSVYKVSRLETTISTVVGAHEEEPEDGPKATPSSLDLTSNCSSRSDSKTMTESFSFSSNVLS

[29] = clinical; details: human, in vivo, po
[30] = single-dose NEPA with 400-mg ketoconazole for 12 days vs alone
[31] = single-dose NEPA with daily 600-mg rifampicin for 17 days

Molecule `Cc1ccccc1-c1cc(N2CCN(C)CC2)ncc1N(C)C(=O)C(C)(C)c1cc(C(F)(F)F)cc(C(F)(F)F)c1` [netupitant] has a Tmax [1] of 5.38 h, a Vd/F [1] of 2780 L and a half-life [1] of 3.72 days. For the same molecule, the CL/F ([2]; Study 5, healthy volunteers (47), single oral NEPA FDC, mean (CV%)) was 26.3 (47.4) L/h, the Cmax ([2]; human, plasma, po) was 434 ng/mL and the Tmax ([2]; human, plasma, po) was 5.07 h. For the same molecule, the Vd/F ([2]; human, plasma, po) was 3310 L, the half-life ([2]; human, plasma, po) was 3.98 days and the CL/F ([3]; Study 9, healthy volunteers (82), NEPA FDC commercial product, mean (CV%)) was 26.2 (51.2) L/h. It also gave a Cmax ([3]; human, plasma, oral) of 454 ng/mL, a Tmax ([3]; human, plasma, oral) of 5.01 h and a Vd/F ([3]; human, plasma, oral) of 2740 L. For the same molecule, the half-life ([3]; human, plasma, oral) was 3.19 days, the CL/F ([4]; Study 10, healthy volunteers (24), NEPA FDC standard dissolution, mean (CV%)) was 25.7 (40.9) L/h and the Cmax ([4]; human, plasma, oral) was 374 ng/mL. The Tmax ([4]; human, plasma, oral) was 5.15 h, the Vd/F ([4]; human, plasma, oral) was 3160 L and the half-life ([4]; human, plasma, oral) was 3.75 days. It also gave an absorption lag time [5] of 0.77 h, an absorption rate constant [5] of 0.956 h⁻¹ and a Vd/F [6] of 1860 to 2260 L. It also gave a Cmax [7] of 477 to 567 ng/mL, a Tmax [7] of 4.02 to 4.56 h and a Vd/F [7] of 1660 to 2260 L. For the same molecule, the “fraction of netupitant eliminated” value [8] was “approximately 90%”, the Papp [9] was > 20 ×10⁻⁶ cm/s and the “Biopharmaceutics Classification System class” value [10] was 2. The logP [11] was 5.1, the Ki [12] was 3 µM and the “fold by which unbound peak plasma concentration is lower than P-gp Ki” value ([12]; human, not told, oral) was “approximately 5 fold”. The fraction unbound [13] was < 0.01, the “binding to plasma proteins” value [14] was > 99% and the bioavailability [15] was 63 to 87%. For the same molecule, the “inhibition or induction of CYP2D6” value [16] was “not an inhibitor or inducer”, the “fraction from previous NEPA administration eliminated at next dose” value ([17]; chemotherapy every 2 weeks) was “approximately 95%” and the “fraction from previous NEPA administration eliminated at next dose” value ([17]; chemotherapy every 3 weeks) was “approximately 99%”. For the same molecule, the CL/F (Healthy volunteers, Min-Max of study means, single oral NEPA) was 16.3 to 26.3 L/h, the “time after dosing until which plasma concentrations were quantifiable” value (after NEPA, M2 below LLOQ thereafter, others up to last observation time) was 10 days and the “plasma concentration as fraction of mean Cmax” value (at 3 hours after oral NEPA) was “approximately 80%”. For the same molecule, the “peak plasma concentration of unbound netupitant” value (human, in vivo) was 0.65 µM, the “fold increase of AUCinf” value [18, 30] was 2.4 fold and the “fold increase of Cmax” value [18, 30] was 1.2 fold. The “fold decrease of AUCinf” value [18, 31] was 4.9 fold, the “fold decrease of Cmax” value [18, 31] was 2.2 fold and the CL/F ([19]; fasted) was 20.5 (52.7) L/h. For the same molecule, the Cmax ([19]; fasted) was 596.4 (39.1) ng/mL, the Tmax ([19]; fasted) was 5.14 (17.3) h and the Vz/F ([19]; fasted) was 2851 (57.3) L. For the same molecule, the t1/2 ([19]; fasted) was 101.2 (52.2) h, the CL/F ([19]; fed) was 16.3 (23.1) L/h and the Cmax ([19]; fed) was 649.8 (21.8) ng/mL. The Tmax ([19]; fed) was 5.66 (17.1) h, the Vz/F ([19]; fed) was 1984 (40.1) L and the t1/2 ([19]; fed) was 86.3 (46.2) h. The “AUCinf and Cmax under fed (high-fat breakfast) vs fasting conditions” value ([19]; open, randomized, 2-way crossover study in healthy volunteers) was “similar”, the Cmax ([20]; mean (CV%)) was 567.3 (38.2) ng/mL and the Tmax ([20]; mean (CV%)) was 4.02 (59.1) h. The t1/2 ([20]; mean (CV%)) was 92.8 (32.8) h, the CL/F ([20]; value (%RSE)) was 20.5 (%RSE 16.3) L/h and the “PK interaction between netupitant and palonosetron” value [21] was “no relevant PK interactions”. For the same molecule, the “mass balance recovery of total radioactivity in urine” value ([22]; [14C]-netupitant and its metabolites M1, M2, and M3) was 4.75%, the “administered dose excreted through the feces (hepatic/biliary route)” value ([22]; netupitant and its metabolites) was 87% and 86.5% and the solubility in water [23] was “very slightly soluble”. The “substrate of P-gp (MDR1/P-gp) efflux transporter” value [24] was “not a P‐gp substrate; also recorded: not substrates”, the “inhibitor of P-gp efflux transporter” value ([24]; parent drugs) was “P‐gp inhibitor” and the CYP3A4 inhibition [25] was “moderate inhibitor”. For the same molecule, the “NK1 receptor occupancy in the striatum” value [26] was 92.5%, the “combined effect on inhibition of substance P-mediated response” value [27] was “synergistic effects” and the “combined effect on triggering NK1 receptor internalization” value [28] was “additive effects”. The Cmax [29] was 374 to 650 ng/mL, the Tmax [29] was 4.36 to 5.66 h and the Vd/F [29] was 1980 to 3310 L. It also gave a half-life [29] of 3.14 to 4.22 days.
